Target: T1, non-glyc-HS2ST WT (Gallus gallus, UniProt Q76KB1)
T1 construct: made in house; host or cells: E. coli Origami B (DE3)
T1 sequence (Q76KB1 69-356 limits assumed): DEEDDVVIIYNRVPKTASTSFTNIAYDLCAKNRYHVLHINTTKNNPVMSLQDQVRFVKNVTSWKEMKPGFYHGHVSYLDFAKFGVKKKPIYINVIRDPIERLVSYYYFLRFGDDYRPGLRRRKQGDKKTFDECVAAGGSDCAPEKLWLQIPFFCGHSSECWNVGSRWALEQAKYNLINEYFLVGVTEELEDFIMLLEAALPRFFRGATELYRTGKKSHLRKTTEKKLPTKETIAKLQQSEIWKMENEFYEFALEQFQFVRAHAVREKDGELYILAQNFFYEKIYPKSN
Assay: Inhibition assay of the reaction between HS2ST and completely de-O-sulfated N-sulfated heparin ([35S]PAPS)
Type: biochemical, chicken
Settings: for IC50: p-nitrophenol-terminated hexasaccharides, substrate CDNS heparin 1 µg, [35S]PAPS, 37 °C, 1 h, n = 2 or 3
Procedure: Inhibition assays were thus performed with non-glyc-HS2ST and all compounds except for 1, the enzymatic substrate. […] Compound 5 appeared to inhibit at least as well as the product of the reaction (2); however, the IC50 was not reached even at the maximum substrate concentration (1 mM) for either 2 or 5. The addition of a single sulfate moiety enhanced the potency of the glycan as an inhibitor by ~10-fold (compare 3 and 4). The presence of both 2- and 3-O-sulfate moieties in the hexasaccharide (4) enhanced its inhibitory potential by approximately 100-fold relative to 5. These in vitro inhibition assays indicate that downstream products of the HS biosynthetic pathway could interfere with HS2ST catalysis in vivo.
The same glycan sequences were synthesized[62] for the inhibition assay as were used for the binding studies (Supplementary Table 1), except these terminated in p-nitrophenol rather than the PEG4-Biotin linker. The reaction mixture contained Tris pH 7.5 50 mM, 0.3 µg non-glyc-HS2ST WT, 0.08 nmol ^35S-labeled 3′-phosphoadenosine 5′-phosphosulfate ([^35S] PAPS) (3 × 10^4 cpm), completely de-O-sulfated N-sulfated heparin (CDNS heparin) 1 µg, and either compound 2, 3, 4 (0, 1, 2, 4, 8, and 16 µg) or 5 (2, 20, 60, and 160 µg) in a total volume of 0.1 ml. After incubation at 37 °C for 1 h, the reaction was quenched by adding 1 mL of 0.01% Triton X-100 buffer at pH 5.0 containing 150 mM NaCl, 50 mM NaOAc, 3 M urea and 1 mM ethylenediaminetetraacetic acid (EDTA). The samples were loaded on a small DEAE column (200 µl in size). The column was then washed five times with the same buffer, each time 1 ml. The column was further washed five times with 0.25 M NaCl in 0.001% Triton X-100 buffer each time 1 ml. The column was eluted with 1 ml of 1 M NaCl in 0.001% Triton X-100 buffer. The ^35S cpm of the eluted samples were tested the by a scintillation counter.

**Q.** With “GlcNS-GlcA-GlcNS-IdoA2S-GlcNS-GlcA~ [Compound 2]” as the substance, how does the IC50 read?
**A.** Its IC50 is over 1 mM.

**Q.** For “GlcNS6S-GlcA-GlcNS3S6S-IdoA2S-GlcNS6S-GlcA~ [Compound 4]”, which “Enhancement of inhibitory potential relative to 5” value (4 relative to 5) is on record?
**A.** The value was “approximately 100 fold”.

**Q.** And the “Enhancement of inhibitory potency by addition of a single sulfate moiety (compare 3 and 4)” value (4 versus 3)?
**A.** The value was ~ 10 fold.

**Q.** Which IC50 does the source give for “GlcNS6S-GlcA-GlcNS6S-GlcA-GlcNS6S-GlcA~ [Compound 5]” here?
**A.** Its IC50 is over 1 mM.

Reference: article PMC6081452, “Downstream Products are Potent Inhibitors of the Heparan Sulfate 2-O-Sulfotransferase” (Scientific Reports, 2018)
